Columns and labels:
Type in all cases: cell-based
[1] = test system: Escherichia coli ATCC 10536; experiment: Minimum inhibiting concentration (MIC value) in microtitre plates; design: unit not given here; details: serial dilution 1:2, 48 hours at 37° C., <20% growth compared with growth control
Experimental: (§1) Determination of the Minimum Inhibiting Concentration (MIC Value) in Microtitre Plates Nutrient Medium: Casein/soybean flour peptone bouillon for the preparation of the precultures of the test bacteria and yeast. Examples of Test Organisms: Bacteria: Escherichia coli ATCC 10536 (=EC) Staphylococcus aureus ATCC 6538(=SA) Procedure: The test substances are predissolved in dimethyl sulfoxide (DMSO) and tested in a serial dilution of 1:2. Bacteria and yeast are cultured overnight in CASO bouillon. All test organism suspensions are adjusted to an organism count of 1-5×10^6 CFU/ml with 0.85% sodium chloride solution. The test substances are prepipetted into microtitre plates in an amount of 8 μl per well. The previously adjusted organism suspensions are diluted 1:100 in CASO bouillon and added to the test substances in an amount of 192 μl per well. The test batches are incubated for 48 hours at 37° C. After incubation, the growth is determined by reference to the turbidity of the test batches (optical density) at 620 nm in a microplate reader. The minimum inhibiting concentration (MIC value) is the concentration of substance at which an appreciable inhibition of the growth (<20% growth compared with the growth control) of the test organisms is ascertained. Three microtitre plates are used for each test organism and substance concentration.

[2] = test system: Staphylococcus aureus ATCC 6538; experiment: as above; design: unit not given here; details: serial dilution 1:2, 48 hours at 37° C., <20% growth compared with growth control
Experimental: as §1

[3] = test system: Aspergillus niger ATCC 6275; experiment: MIC in agar incorporation test; details: GC purity 88%
Experimental: (§2) Determination of the Minimum Inhibiting Concentration of the Compound of Formula (3) in Respect of a Wider Spectrum of Organisms The compound of formula (3) (see Table 1; GC purity 88%; prepared in accordance with Example 1) is tested on the microorganisms indicated in Table 3. The test for determining the minimum inhibiting concentration is effected in an agar incorporation test.

[4] = test system: C. minutissimum ATCC 23348; experiment: MIC in agar incorporation test; details: GC purity 88%
Experimental: as §2

[5] = test system: Candida albicans ATCC 10231; experiment: MIC in agar incorporation test; details: GC purity 88%
Experimental: as §2

[6] = test system: Corynebacterium xerosis ATCC 373; experiment: MIC in agar incorporation test; details: GC purity 88%
Experimental: as §2

[7] = test system: Escherichia coli ATCC 10536; experiment: MIC in agar incorporation test; details: GC purity 88%
Experimental: as §2

[8] = test system: Escherichia coli NCTC 8196; experiment: MIC in agar incorporation test; details: GC purity 88%
Experimental: as §2

[9] = test system: Klebsiella pneumoniae ATCC 4352; experiment: MIC in agar incorporation test; details: GC purity 88%
Experimental: as §2

[10] = test system: Propionibacterium acnes ATCC 6919; experiment: MIC in agar incorporation test; details: GC purity 88%
Experimental: as §2

[11] = test system: Proteus vulgaris ATCC 6896; experiment: MIC in agar incorporation test; details: GC purity 88%
Experimental: as §2

[12] = test system: Pseudomonas aeruginosa ATCC 15442; experiment: MIC in agar incorporation test; details: GC purity 88%
Experimental: as §2

[13] = test system: Salmonella choleraesuis ATCC 9184; experiment: MIC in agar incorporation test; details: GC purity 88%
Experimental: as §2

[14] = test system: Staphylococcus aureus ATCC 6538; experiment: MIC in agar incorporation test; details: GC purity 88%
Experimental: as §2

[15] = test system: Staphylococcus aureus ATCC 9144; experiment: MIC in agar incorporation test; details: GC purity 88%
Experimental: as §2

[16] = test system: Staphylococcus epidermidis ATCC 12228; experiment: MIC in agar incorporation test; details: GC purity 88%
Experimental: as §2

Row | SMILES | MIC value ATCC 10536 [1] | MIC value ATCC 6538 [2] | other results
1 | CCCCCCCCNCc1ccc(-c2ccc(CNCCCCCCCC)cc2)cc1 [Compound of formula 3, octyl-(4′-octylaminomethyl-biphenyl-4-ylmethyl)-amine] | <3.75 | 7.5 | MIC [3]: >120; MIC [4]: 1.88; MIC [5]: >120; MIC [6]: 1.88; MIC [7]: 3.75; MIC [8]: 3.75; MIC [9]: 7.5; MIC [10]: 3.75; MIC [11]: >120; MIC [12]: >120; MIC [13]: 7.5; MIC [14]: 3.75; MIC [15]: 3.75; MIC [16]: 3.75
2 | CCCCCCCCCCNCc1ccc(-c2ccc(CNCCCCCCCCCC)cc2)cc1 [Compound of formula 4] | 15 | 30 | –
3 | CCCCCCCCCCCNCc1ccc(-c2ccc(CNCCCCCCCCCCC)cc2)cc1 [Compound of formula 5] | 30 | 30 | –
4 | CCCCCCCCCCCCCNCc1ccc(-c2ccc(CNCCCCCCCCCCCCC)cc2)cc1 [Compound of formula 6] | 30 | 30 | –
5 | CCCCC(CC)CNCc1ccc(-c2ccc(CNCC(CC)CCCC)cc2)cc1 (centres unmarked) [Compound of formula 13] | 7.5 | 7.5 | –
6 | c1ccc(CNCc2ccc(-c3ccc(CNCc4ccccc4)cc3)cc2)cc1 [Compound of formula 15] | 120 | 120 | –
7 | c1ccc(CCNCc2ccc(-c3ccc(CNCCc4ccccc4)cc3)cc2)cc1 [Compound of formula 17] | 15 | 15 | –
8 | c1coc(CNCc2ccc(-c3ccc(CNCc4ccco4)cc3)cc2)c1 [Compound of formula 20] | >120 | >120 | –
9 | CCCCCCCCCCCCN(C)Cc1ccc(-c2ccc(CN(C)CCCCCCCCCCCC)cc2)cc1 [Compound of formula 22] | 15 | 15 | –
10 | CCCN(CCC)Cc1ccc(-c2ccc(CN(CCC)CCC)cc2)cc1 [Compound of formula 24] | >120 | >120 | –
11 | CCCCN(CCCC)Cc1ccc(-c2ccc(CN(CCCC)CCCC)cc2)cc1 [Compound of formula 25] | >120 | >120 | –
12 | CCCCCN(CCCCC)Cc1ccc(-c2ccc(CN(CCCCC)CCCCC)cc2)cc1 [Compound of formula 26] | >120 | 30 | –
13 | CCCCCCN(CCCCCC)Cc1ccc(-c2ccc(CN(CCCCCC)CCCCCC)cc2)cc1 [Compound of formula 27] | >120 | 15 | –
14 | CCCCCCCCN(CCCCCCCC)Cc1ccc(-c2ccc(CN(CCCCCCCC)CCCCCCCC)cc2)cc1 [Compound of formula 28] | 15 | 7.5 | –
15 | c1ccc(CN(Cc2ccccc2)Cc2ccc(-c3ccc(CN(Cc4ccccc4)Cc4ccccc4)cc3)cc2)cc1 [Compound of formula 29] | >120 | >120 | –

Further lines, with some results ahead:

Row | MIC value ATCC 10536 [1] | MIC value ATCC 6538 [2] | SMILES | other results
16 | 15 | 15 | CCCNCc1ccc(-c2ccc(CNCCC)cc2)cc1 [Compound of formula 2] | –
17 | 30 | 15 | CC(C)NCc1ccc(-c2ccc(CNC(C)C)cc2)cc1 [Compound of formula 7] | –
18 | 60 | 15 | CCC(C)NCc1ccc(-c2ccc(CNC(C)CC)cc2)cc1 (centres unmarked) [Compound of formula 8] | –
19 | >120 | 60 | CC(C)(C)NCc1ccc(-c2ccc(CNC(C)(C)C)cc2)cc1 [Compound of formula 9] | –
20 | 30 | 15 | CCCC(C)NCc1ccc(-c2ccc(CNC(C)CCC)cc2)cc1 (centres unmarked) [Compound of formula 10] | –
21 | 30 | 30 | CC(C)CCNCc1ccc(-c2ccc(CNCCC(C)C)cc2)cc1 [Compound of formula 11] | –
22 | 60 | 30 | CC(C)CC(C)NCc1ccc(-c2ccc(CNC(C)CC(C)C)cc2)cc1 (centres unmarked) [Compound of formula 12] | –
23 | >120 | 30 | COCC(C)NCc1ccc(-c2ccc(CNC(C)COC)cc2)cc1 (centres unmarked) [Compound of formula 14] | –
24 | 120 | 60 | c1cc(-c2ccc(CNC3CCCCC3)cc2)ccc1CNC1CCCCC1 [Compound of formula 16] | –
25 | >120 | >120 | c1cc(-c2ccc(CN3CCOCC3)cc2)ccc1CN1CCOCC1 [Compound of formula 18] | –
26 | >120 | >120 | CC(=O)N1CCN(Cc2ccc(-c3ccc(CN4CCN(C(C)=O)CC4)cc3)cc2)CC1 [Compound of formula 19] | –
27 | 120 | >120 | CCCCN(C)Cc1ccc(-c2ccc(CN(C)CCCC)cc2)cc1 [Compound of formula 21] | –
28 | >120 | 15 | CCN(CC)Cc1ccc(-c2ccc(CN(CC)CC)cc2)cc1 [Compound of formula 23] | –
29 | >120 | >120 | CN(CCO)Cc1ccc(-c2ccc(CN(C)CCO)cc2)cc1 [Compound of formula 30] | –
30 | 120 | 60 | c1cc(-c2ccc(CN3CCCCCC3)cc2)ccc1CN1CCCCCC1 [Compound of formula 31] | –
